Numbers after ± are expanded uncertainties.
Assay: xn = mol fraction of the nth substance listed
Details: 101 kPa, Liquid, Vibrating tube method

c1ccoc1 [furan] + CCCCCC
mass density [kg/m3]
Details	x1 = 0.12	x1 = 0.199	x1 = 0.365	x1 = 0.511	x1 = 0.623	x1 = 0.786	x1 = 0.908	x1 = 1
293.15 K	677.8 ± 0.3	690.2 ± 0.3	721.4 ± 0.3	755.2 ± 0.3	786.2 ± 0.3	841.2 ± 0.3	891.9 ± 0.2	939.8 ± 0.2
298.15 K	673.9 ± 0.3	686.1 ± 0.3	717 ± 0.3	750.5 ± 0.3	781.4 ± 0.3	835.9 ± 0.3	886.4 ± 0.2	934 ± 0.2
303.15 K	670 ± 0.3	682.2 ± 0.3	712.8 ± 0.3	746 ± 0.3	776.6 ± 0.3	830.8 ± 0.3	881 ± 0.2	928.3 ± 0.2

c1ccoc1 [furan] + Cc1ccccc1
mass density [kg/m3]
Details	x1 = 0.1	x1 = 0.199	x1 = 0.387	x1 = 0.507	x1 = 0.591	x1 = 0.761	x1 = 0.89	x1 = 1
293.15 K	873.3 ± 0.1	878.9 ± 0.1	889.8 ± 0.1	897.7 ± 0.1	903.8 ± 0.2	917.5 ± 0.2	929.2 ± 0.2	939.8 ± 0.2
298.15 K	869.5 ± 0.1	875 ± 0.1	885.6 ± 0.1	893.2 ± 0.1	899.1 ± 0.2	912.4 ± 0.2	923.7 ± 0.2	934 ± 0.2
303.15 K	865.9 ± 0.1	871.2 ± 0.1	881.5 ± 0.1	888.9 ± 0.1	894.6 ± 0.2	907.5 ± 0.2	918.4 ± 0.2	928.3 ± 0.2

CCCCCC [hexane] + c1ccoc1
x2 = 0
Details	mass density [kg/m3]
293.15 K	660.8 ± 0.3
298.15 K	657 ± 0.3
303.15 K	653.3 ± 0.3

Cc1ccccc1 [toluene] + c1ccoc1
x2 = 0
Details	mass density [kg/m3]
293.15 K	868.2 ± 0.1
298.15 K	864.5 ± 0.1
303.15 K	861 ± 0.1

From the NIST ThermoML archive (doi:10.1016/j.fluid.2012.08.005)
